Data as given in US20240358015A1, “HERBICIDAL COMPOSITIONS” (Agrematch Ltd., priority 2021, published 2024).

Experiments:
Amaranthus palmeri = experiment: Growth-chamber post-emergence herbicidal assay (Example 2); assay type: in vivo
Experimental: Herbicidal activity was determined by post-emergence application on 8-day old plants (weeds) of the Amaranthus palmeri and Setaria viridis species that were grown at 16 hours/8 hours day/night cycles at 30° C./25° C., respectively. Leaf stage was typically 4-6 for A. palmeri and 3-4 for S. viridis.
In each treatment, 2-3 pots, each containing about 5 plants each (for Setaria viridis), and one 9-pack, containing about 9 plants (for Amaranthus palmeri), were sprayed using a VL-SET Paasche Airbrush with 0.3-1.5 ml solution containing 0.125-2 mg/ml of a tested compound, which is equivalent to about 125-2000 g/ha.
(§1) Damage assessment: Herbicidal activity was assessed and scored 3-4 days after application by visual inspection of the plants in comparison to plants treated with the formulation alone (with no active ingredient) as control. Activity score is in the range of 0 to 100, where 0 represents no herbicidal activity like control plants and 100 represents the maximal herbicidal activity (i.e., total death of the plant).
Formulation design: Compounds were tested on A. Palmeri in various formulations, and in varying concentrations for each of the tested formulations, in order to determine optimal conditions for its application and performance. Activity scores were determined as described hereinabove. Solubility scores were determined by visual inspection on a scale of 1-10, with 10 representing complete solubilization and 1 represents nullified solubilization.
Each of the obtained solution was then mixed with different adjuvants and applied at a rate equivalent to 500 g/ha for A. palmeri and 1000 g/ha for S. viridis. Herbicidal activity scores 3-4 days after application are presented Table 3 below.

S. viridis = experiment: Growth-chamber post-emergence assay on various weed species (Example 7); assay type: in vivo, Setaria viridis; settings: 0.05% Break-Thru
Experimental: Herbicidal activity of Compound 1 was determined by post-emergence application on various weed species. 8-14 day old plants (weeds) were grown at 16 hours/8 hours day/night cycles at 30° C./25° C., respectively. Leaf stage was typically 2-6.
In each treatment, 3 pots (either 7×7 or 8×12 cm), containing about 3-6 plants each, were sprayed using a VL-SET Paasche Airbrush with a 1-1.5 ml-solution containing 0.5-1.5 mg/ml of the tested compound, which is equivalent to about 500-1500 g/ha.
as §1

Echinochloa colonum = experiment: Growth-chamber post-emergence assay on additional weeds (Example 2); assay type: in vivo; settings: 1000 g/ha; 13-day old plants; 3 days after application; scale 0-100
Experimental: (§2) Herbicidal activity of Compound 1 was determined by post-emergence application on 13-day old Echinochloa colonum, Lolium multiflorum and Solanum nigrum.
(§3) In each treatment, 3 pots, each containing about 5 plants, were sprayed using the same conditions as described above which are equivalent to 1000 g/ha. Herbicidal activity was assessed and scored 3 days after application by visual inspection of the weeds. Activity score is in the range of 0 to 100, where 0 represents no herbicidal activity like control plants and 100 represents the maximal herbicidal activity (i.e., total death of the plant). The obtained data is presented in Table 6 below per the activity score as described herein.

Lolium multiflorum = experiment: as above; assay type: in vivo; settings: 1000 g/ha; 13-day old plants; 3 days after application; scale 0-100
Experimental: as §2, §3

Solanum nigrum = experiment: as above; assay type: in vivo; settings: 1000 g/ha; 13-day old plants; 3 days after application; scale 0-100
Experimental: as §2, §3

Z. mays = experiment: Greenhouse post-emergence assay (Example 3); assay type: in vivo, Zea mays; settings: 4% TWEEN 20, 0.05 M Tris buffer pH 8, 0.05% Break-Thru
Experimental: Plant seeds were sowed in 9 cm×9 cm×10 cm flowerpots. Timing of sowing (days before treatment application) for each plant is detailed in Table 7 below. 5 flowerpots of each species were used for each treatment. Seeds were sowed in wet clay soil and then covered with about 1 cm layer of dry clay soil.
Irrigation: Irrigation was carried out using VIBRONET-UD (NETAFIM) sprinklers hanging upside down one meter above the flowerpots. Water flow capacity-50 liters per hour. Irrigation was carried out three times a day for 10 minutes.
Treatments: Table 8 presents generally the protocols of the various treatments used in these assays.
(§4) 57.6 ml of 0.05 M Tris buffer pH=8 were added to 150 mg of Compound 1 and the mixture was stirred using a magnetic stirrer. 2.4 ml of TWEEN®20 were added and the mixture was stirred using a magnetic stirrer to obtain a 4% TWEEN®20-containing solution. 30 μl of Break-Thru were added to obtain a 0.05% Break-Thru-containing solution.
as §4, with “225” for “150”
Plants were sprayed using a DeVreis Generation 4 Research Track Sprayer with a TEE JET nozzle 80015EVS. Spraying volume was 200 L/ha using the following sprayer parameters: • Spray speed-2 KMH • Spray length-1.50 m • Spray pressure-42 PSI
Each plant was sprayed twice, yielding a total spraying volume of 400 L/ha. Nozzle was located 55 cm above pots ground level.
A. palmeri, S. viridis and S. nigrum plants were elevated with 8 cm tray, Z. mays plants were elevated with 3 cm tray in order to achieve a similar spraying height for all plant's foliage.
Plants were scored by visual inspection of symptoms, on a scale of 0-100, where 0 represents no herbicidal activity like control plants and 100 represents the maximal herbicidal activity (i.e., total death of the plant). Each pot was scored separately. DAT=days after treatment

Q: How did the Herbicidal activity score (Amaranthus palmeri; 500 g/ha, 0.5 mg/ml in 0.007% Ammonium hydroxide, 0.25% Adsee, 3-4 days after application) turn out when `O=C(O)c1cc(O)c2c(c1)C(=O)c1cccc(O)c1C2=O` [Compound 1, Rhein] was run?
A: 30

Q: And the Herbicidal activity score (Amaranthus palmeri; 500 g/ha, 0.5 mg/ml in 0.007% Ammonium hydroxide, 0.25% Genapol X-080, 3-4 days after application)?
A: 50

Q: And the Herbicidal activity score (Amaranthus palmeri; 500 g/ha, 0.5 mg/ml in 0.007% Ammonium hydroxide, 0.7% Sodium Lauryl Ether sulfate, 3-4 days after application)?
A: 85

Q: What about the Herbicidal activity score (Amaranthus palmeri; 500 g/ha, 0.5 mg/ml in 0.007% Ammonium hydroxide, 1% AGNIQUE, 0.05% Ca-LAS, 0.02% BSU, 3-4 days after application) of the same compound?
A: 70

Q: And the Herbicidal activity score (Amaranthus palmeri; 500 g/ha, 0.5 mg/ml in 0.007% Ammonium hydroxide, 2% Tween 20, 3-4 days after application, scale 0-100)?
A: 60

Q: And the Herbicidal activity score (Amaranthus palmeri; 500 g/ha, 0.5 mg/ml in 0.019% MIPA, 0.25% Adsee, 3-4 days after application)?
A: 80

Q: What about the Herbicidal activity score (Amaranthus palmeri; 500 g/ha, 0.5 mg/ml in 0.019% MIPA, 0.25% Genapol X-080, 3-4 days after application) of the same compound?
A: 70

Q: What about the Herbicidal activity score (Amaranthus palmeri; 500 g/ha, 0.5 mg/ml in 0.019% MIPA, 0.7% Sodium Lauryl Ether sulfate, 3-4 days after application) of the same compound?
A: 90

Q: And the Herbicidal activity score (Amaranthus palmeri; 500 g/ha, 0.5 mg/ml in 0.019% MIPA, 1% AGNIQUE, 0.05% Ca-LAS, 0.02% BSU, 3-4 days after application)?
A: 80

Q: What about the Herbicidal activity score (Amaranthus palmeri; 500 g/ha, 0.5 mg/ml in 0.019% MIPA, 2% Tween 20, 3-4 days after application) of the same compound?
A: 95

Q: And the “Activity Score” value (Amaranthus palmeri; 500 g/ha, 2% TWEEN 20, 5 mM MIPA, 1% AGNIQUE, 0.05% Ca-LAS, 0.02% BSU, 0.05% Break-Thru)?
A: 95

Q: What about the “Activity Score” value (Amaranthus palmeri; 1000 g/ha, 1% TWEEN 80, 0.05M Tris buffer pH 8, 0.05% Break-Thru, 3-4 days after application, scale 0-100) of the same compound?
A: 100

Q: And the “Activity Score” value (Amaranthus palmeri; 1500 g/ha, 4% TWEEN 20, 0.05M Tris buffer pH 8, 0.05% Break-Thru)?
A: 95

Q: What about the “Activity Score” value (Amaranthus palmeri; 2000 g/ha, 1% TWEEN 80, 0.05M Tris buffer pH 8, 0.05% Break-Thru) of the same compound?
A: 95

Q: And the Herbicidal activity score (S. viridis; 500 g/ha, 0.8% MIPA, 0.25% Genapol, 1% AGNIQUE, 0.05% Ca-LAS, 0.02% BSU)?
A: 70

Q: And the Herbicidal activity score (S. viridis; 750 g/ha, 0.2% MIPA, 2% TWEEN20, 1% AGNIQUE, 0.05% Ca-LAS, 0.02% BSU)?
A: 70

Q: And the Herbicidal activity score (S. viridis; 1500 g/ha, 0.8% MIPA, 0.25% Genapol, 2% HASTEN)?
A: 100

Q: And the Activity Score (Echinochloa colonum)?
A: 70

Q: And the Activity Score (Lolium multiflorum)?
A: 50

Q: And the Activity Score (Solanum nigrum)?
A: 60

Q: And the “Score by visual inspection of symptoms (average ± standard deviation, 5 pots)” value (“Score … (average ± standard deviation, 5 pots)” below) (Z. mays; 1000 g/ha (2.5 mg/ml, 400 L/ha), 1 DAT, scale 0-100)?
A: 0 ± 0

Q: And the “Score … (average ± standard deviation, 5 pots)” value (Z. mays; 1000 g/ha (2.5 mg/ml, 400 L/ha), 3 DAT)?
A: 30 ± 0

Q: And the “Score … (average ± standard deviation, 5 pots)” value (Z. mays; 1000 g/ha (2.5 mg/ml, 400 L/ha), 6 DAT)?
A: 20 ± 0

Q: What about the “Score … (average ± standard deviation, 5 pots)” value (Z. mays; 1000 g/ha (2.5 mg/ml, 400 L/ha), 8 DAT) of the same compound?
A: 22 ± 4.5

Q: And the “Score … (average ± standard deviation, 5 pots)” value (Z. mays; 1000 g/ha (2.5 mg/ml, 400 L/ha), 15 DAT)?
A: 10 ± 0

Q: What about the “Score … (average ± standard deviation, 5 pots)” value (Z. mays; 1500 g/ha (3.75 mg/ml, 400 L/ha), 1 DAT) of the same compound?
A: 0 ± 0

Q: And the “Score … (average ± standard deviation, 5 pots)” value (Z. mays; 1500 g/ha (3.75 mg/ml, 400 L/ha), 3 DAT)?
A: 30 ± 0

Q: What about the “Score … (average ± standard deviation, 5 pots)” value (Z. mays; 1500 g/ha (3.75 mg/ml, 400 L/ha), 6 DAT) of the same compound?
A: 30 ± 0

Q: And the “Score … (average ± standard deviation, 5 pots)” value (Z. mays; 1500 g/ha (3.75 mg/ml, 400 L/ha), 8 DAT)?
A: 28 ± 4.5

Q: What about the “Score … (average ± standard deviation, 5 pots)” value (Z. mays; 1500 g/ha (3.75 mg/ml, 400 L/ha), 15 DAT) of the same compound?
A: 20 ± 0
